Measurements from patent US20050256182A1, “Formulations of anti-pain agents and methods of using the same” (priority 2004, published 2005).

Test: Crossover PK study: sumatriptan plasma levels (LC/MS/MS) after ID, junctional or SC administration; Tmax, Cmax, AUC, relative F
Assay type: in vivo
Details: Yucatan miniswine, mean; for AUC 0-10 min: Yucatan, minipig, plasma, AUC 10 min.
[1] = 3 × 3 mm × 34 g, 12 mg/ml, 5 minutes metered bolus
[2] = SC, 12 mg/ml (reference condition)

C max (1 × 2 mm × 30 g, 30 mg/ml): 849.333 ng/mL
C max (1 × 3 mm × 30 g, 30 mg/ml): 836.667 ng/mL
C max [1]: 705.833 ng/mL
rel. F 10 min [2]: 100.000%
rel. F Total [2]: 100.000%
AUC 0-10 min (1 × 1.5 mm × 30 g, 0 mg/ml): 84.7 ng·h/mL
AUC 0-10 min (1 × 2 mm × 30 g, 30 mg/ml): 75.2 ng·h/mL
AUC 0-10 min (1 × 3 mm × 30 g, 30 mg/ml): 86.4 ng·h/mL
AUC 0-10 min (3 × 2 mm × 34 g, 30 mg/ml): 69.5 ng·h/mL
AUC 0-10 min [1]: 52.8 ng·h/mL
AUC 0-10 min (3 × 3 mm × 34 g, 30 mg/ml, 2 minute metered bolus): 53.4 ng·h/mL
AUC 0-10 min (iv, 12 mg/ml): 59.8 ng·h/mL
AUC 0-10 min (sc, 12 mg/ml): 45.3 ng·h/mL
SMILES: CNS(=O)(=O)Cc1ccc2[nH]cc(CCN(C)C)c2c1 [sumatriptan, 3-[2-(dimethylamino)ethyl]-N-methyl-indole-5-methanesulfonamide]
